Consider 18 compounds from patent publication US8729087B2, “Compositions and methods for inhibition of the JAK pathway” (Rigel Pharmaceuticals, Inc., priority 2006, dated 2014).

Assay [1] has as its system Ramos B-cell line stimulated with IL-4. Put plainly: Assay for Ramos B-Cell Line Stimulated with IL-4 (CD23 upregulation, FACS). The assay is classed as cell-based, human. The note with it: IL-4 50 units/mL, 20-24 hours, anti-CD23-PE staining, FACS, read-out: Example 2 (IC50, Ramos B-cell line stimulated with IL-4). An excerpt:
One means of assaying for such inhibition is detection of the effect of the 2,4-pyrimidinediamine compounds on the upregulation of downstream gene products. In the Ramos/IL4 assay, B-cells are stimulated with the cytokine Interleukin-4 (IL-4) leading to the activation of the JAK/Stat pathway through phosphorylation of the JAK family kinases, JAK1 and JAK3, which in turn phosphorylate and activate the transcription factor Stat-6. […] To study the effect of inhibitors (e.g., the 2,4-substituted pyrimindinediamine compounds described herein) on the JAK1 and JAK3 kinases, human Ramos B cells are stimulated with human IL-4. Twenty to 24 hours post stimulation, cells are stained for upregulation of CD23 and analyzed using flow cytometry (FACS). […] An exemplary assay of this type is described in greater detail in Example 2.
B-cells stimulated with cytokine Interleukin-4 (IL-4) activate the JAK/Stat pathway through phosphorylation of the JAK family kinases, JAK-1 and JAK-3, which in turn phosphorylate and activate the transcription factor Stat-6. […] To study the effect of inhibitors on the JAK family kinases, human Ramos B cells are stimulated with human IL-4.
The Ramos B-cell line was acquired from ATCC (ATCC Catalog No. CRL-1596). The cells were cultured in RPMI 1640 (Cellgro, MediaTech, Inc., Herndon, Va., Cat No. 10-040-CM) with 10% fetal bovine serum (FBS), heat inactivated (JRH Biosciences, Inc, Lenexa, Kans., Cat No. 12106-500M) according to ATCC propagation protocol. Cells were maintained at a density of 3.5×10^5. The day before the experiment, Ramos B-cells were diluted to 3.5×10^5 cells/mL to ensure that they were in a logarithmic growth phase.
Cells were spun down and suspended in RPMI with 5% serum. 5×10^4 cells were used per point in a 96-well tissue culture plate. Cells were pre-incubated with compound or DMSO (Sigma-Aldrich, St. Louis, Mo., Cat No. D2650) vehicle control for 1 hour in a 37° C. incubator.
Cells were then stimulated with IL-4 (Peprotech Inc., Rocky Hill, N.J., Cat No. 200-04) for a final concentration of 50 units/mL for 20-24 hours. Cells were then spun down and stained with anti-CD23-PE (BD Pharmingen, San Diego, Calif., Cat No. 555711) and analyzed by FACS. Detection was performed using a BD LSR I System Flow Cytometer, purchased from Becton Dickinson Biosciences of San Jose, Calif.

For the next assay, the system named is Primary human T-cells. Put plainly: Primary Human T-Cell Proliferation Assay Stimulated with IL-2 (CellTiter-Glo). The assay is classed as cell-based. The conditions noted are these: IL-2, 72 hours, ATP quantitation (CellTiter-Glo), read-out: Example 3 (IC50, primary human T-cell proliferation stimulated with IL-2). An excerpt: The activity of the active compounds of the invention may further be characterized by assaying the effect of the 2,4-pyrimidinediamine compounds described herein on the proliferative response of primary human T-cells. In this assay, primary human T-cells derived from peripheral blood and pre-activated through stimulation of the T-cell receptor and CD28, proliferate in culture in response to the cytokine Interleukin-2 (IL-2). This proliferative response is dependent on the activation of JAK1 and JAK3 tyrosine kinases, which phosphorylate and activate the transcription factor Stat-5. The primary human T-cells are incubated with the 2,4-pyrimidinediamine compounds in the presence of IL-2 for 72 hours and at the assay endpoint intracellular ATP concentrations are measured to assess cell viability. A reduction in cell proliferation compared to control conditions is indicative of inhibition of the JAK kinase pathway. An exemplary assay of this type is described in greater detail in Example 3.
Primary human T-cells derived from peripheral blood and pre-activated through stimulation of the T-cell receptor and CD28, proliferate in vitro in response to the cytokine Interleukin-2 (IL-2). This proliferative response is dependent on the activation of JAK-1 and JAK-3 tyrosine kinases, which phosphorylate and activate the transcription factor Stat-5.
Human primary T cells were prepared as follows. Whole blood was obtained from a healthy volunteer, mixed 1:1 with PBS, layered on to Ficoll Hypaque (Amersham Pharmacia Biotech, Piscataway, N.J., Catalog #17-1440-03) in 2:1 blood/PBS:ficoll ratio and centrifuged for 30 min at 4° C. at 1750 rpm. The lymphocytes at the serum: ficoll interface were recovered and washed twice with 5 volumes of PBS. The cells were resuspended in Yssel's medium (Gemini Bio-products, Woodland, Calif., Catalog #400-103) containing 40 U/mL recombinant IL2 (R and D Systems, Minneapolis, Minn., Catalog #202-IL (20 μg)) and seeded into a flask pre-coated with 1 μg/mL anti-CD3 (BD Pharmingen, San Diego, Calif., Catalog #555336) and […] (Immunotech, Beckman Coulter of Brea Calif., Catalog #IM1376). The primary T-cells were stimulated for 3-4 days, then transferred to a fresh flask and maintained in RPMI with 10% FBS and 40 U/mL IL-2.
Primary T-cells were washed twice with PBS to remove the IL-2 and resuspended in Yssel's medium at 2×10^6 cells/mL. 50 μL of cell suspension containing 80 U/mL IL-2 was added to each well of a flat bottom 96 well black plate. For the unstimulated control, IL-2 was omitted from the last column on the plate. Compounds were serially diluted in dimethyl sulfoxide (DMSO, 99.7% pure, cell culture tested, Sigma-Aldrich, St. Louis, Mo., Catalog No. D2650) from 5 mM in 3-fold dilutions, and then diluted 1:250 in Yssel's medium. 50 μL of 2× compound was added per well in duplicate and the cells were allowed to proliferate for 72 hours at 37° C.
Proliferation was measured using CellTiter-Glo® Luminescent Cell Viability Assay (Promega), which determines the number of viable cells in culture based on quantitation of the ATP present, as an indicator of metabolically active cells. The substrate was thawed and allowed to come to room temperature. After mixing the Cell Titer-Glo reagent and diluent together, 100 μL was added to each well. The plates were mixed on an orbital shaker for two minutes to induce lysis and incubated at room temperature for an additional ten minutes to allow the signal to equilibrate. Detection was performed using a Wallac Victor2 1420 multilabel counter purchased from Perkin Elmer, Shelton, Conn.

pIC50: −log10 of the molar value. Like-named read-outs stand apart in the source and are kept apart here.

In the case of `CCS(=O)(=O)NCc1cccc(Nc2nc(Nc3ccc(CS(=O)(=O)NC)cc3)ncc2F)c1` [Compound I-12, N4-(3-ethylsulfonylaminomethyl)phenyl-5-fluoro-N2-(4-methylaminosulfonylmethyl)phenyl-2,4-pyrimidinediamine], the pIC50 in assay [1] is 6.50; in the assay on Primary human T-cells it was 5.86. Regarding `CC1(C)Oc2ccc(Nc3nc(Nc4ccc5c(c4)CN(S(N)(=O)=O)CC5)ncc3F)nc2NC1=O` [III-3, N2-(2-Aminosulfonyl-1,2,3,4-tetrahydroisoquinolin-7-yl)-N4-(2,2-dimethyl-3-oxo-4H-5-pyrid[1,4]oxazin-6-yl)-5-fluoro-2,4-pyrimidinediamine], the figures for the pIC50 (in assay [1]; in the assay on Primary human T-cells) were 7.14 and 6.57, respectively. Consider `O=S(=O)(NCc1ccc(Nc2ncc(C(F)(F)F)c(Nc3ccc(CNS(=O)(=O)C4CC4)cc3)n2)cc1)C1CC1` [II-4, N2,N4-bis(4-cyclopropylsulfonylaminomethyl)phenyl-5-trifluoromethyl-2,4-pyrimidinediamine], for which the pIC50 in assay [1] is 6.87; in the assay on Primary human T-cells, 6.37.

As for “N2-(3-Aminosulfonylmethylenephenyl)-5-fluoro-N4-[2-(2-N-morpholinoethylaminoacrbonyl)benzofuran-5-yl]-2,4-pyrimidinediamine [IV-5]”, in assay [1], the pIC50 was 5.52. As for `C#CCOC(=O)NCc1ccc(Nc2nc(Nc3cccc(CS(N)(=O)=O)c3)ncc2F)cc1` [Compound I-14, N2-(3-Aminosulfonylmethylphenyl)-5-fluoro-N4-{4-[(prop-2-ynyloxy)carbonylaminomethyl]phenyl}-2,4-pyrimidinediamine], in assay [1] (Homo sapiens, Ramos), the pIC50 is 6.45. Regarding `Cc1cnc(Nc2ccc(CNS(=O)(=O)c3cccnc3)cc2)nc1Nc1ccc(CNS(=O)(=O)c2cccnc2)cc1` [II-3, N2,N4-bis[4-(pyrid-3-yl)sulfonylaminomethyl]phenyl-5-methyl-2,4-pyrimidinediamine], in assay [1], the pIC50 was 6.49. In the case of `CCCN(Cc1ccc(Nc2nc(Nc3ccc(CS(=O)(=O)NC)cc3)ncc2F)cc1)S(=O)(=O)CC` [Compound I-9, N4-[4-(N-ethylsulfonyl-N-propyl)aminomethyl]phenyl-5-fluoro-N2-(4-methylaminosulfonylmethyl)phenyl-2,4-pyrimidinediamine], the pIC50 in assay [1] was 6.65; with Primary human T-cells, 5.86. Regarding `Cc1cnc(Nc2cccc(CNS(=O)(=O)C3CC3)c2)nc1Nc1ccc2c(n1)CCC(=O)O2` [Compound V-5], the pIC50 in assay [1] (Homo sapiens, Ramos) was 6.41. Regarding `C#CCn1ccc2cc(Nc3nc(Nc4cccc(CS(N)(=O)=O)c4)ncc3F)ccc21` [IV-3, N2-(3-Aminosulfonylmethylphenyl)-5-fluoro-N4-[1-(propyn-3-yl)indol-5-yl]-2,4-pyrimidinediamine], the pIC50 in assay [1] (Homo sapiens, Ramos) is 6.67; with Primary human T-cells (Homo sapiens, T-cell, 72 h) it was 5.70. For `CCS(=O)(=O)NCCc1ccc(Nc2nc(Nc3ccc(CS(=O)(=O)NC)cc3)ncc2F)cc1` [Compound I-15, N4-[4-(2-ethylsulfonylamino)ethyl]phenyl-5-fluoro-N2-(4-methylaminosulfonylmethyl)phenyl-2,4-pyrimidinediamine], in assay [1], the pIC50 was 6.42. As to `C#CCOc1ccc(Nc2nc(Nc3cccc(CS(N)(=O)=O)c3)ncc2F)cc1` [Compound I-3, N2-(3-Aminosulfonylmethylphenyl)-5-fluoro-N4-[4-(prop-2-ynyloxy)phenyl]-2,4-pyrimidinediamine], the pIC50 in assay [1] (Homo sapiens, Ramos) was 7.03; with Primary human T-cells (Homo sapiens, T-cell, 72 h) it was 6.11. `Cc1cnc(Nc2cccc(S(N)(=O)=O)c2)nc1Nc1ccc2c(c1)C(NS(C)(=O)=O)CC2` (racemic) [VI-1, (+/−)-N2-(3-Aminosulfonylphenyl)-5-methyl-N4-[1-(methylsulfonyl)aminoindan-6-yl]-2,4-pyrimidinediamine]: the pIC50 in assay [1] (Homo sapiens, Ramos) is 6.51.

As to `Cc1ccc(Nc2ncc(F)c(Nc3cc4c(cc3F)CS(=O)(=O)N4)n2)cc1S(N)(=O)=O` [Compound V-3, N2-(3-aminosulfonyl-4-methyl)phenyl-5-fluoro-N4-(2,2-dioxo-5-fluoro-1,3-dihydrobenzo[c]isothiazol-6-yl)-2,4-pyrimidinediamine], the pIC50 in assay [1] (Homo sapiens, Ramos) is 4.89. For the compound `Cn1nccc1NC(=O)Cc1cccc(Nc2nc(Nc3cccc(CS(N)(=O)=O)c3)ncc2F)c1` [Compound I-20, N2-[3-(Aminosulfonylmethylene)phenyl]-5-fluoro-N4-[(1-methylpyrazolyl-5-aminocarbonylmethylene)phenyl]-5-fluoro-2,4-pyrimidinediamine], the pIC50 in assay [1] is 5.94. For `CN1CCC(NS(=O)(=O)C=C2C=CC=C(Nc3nc(NC4=CC=CC(=CS(N)(=O)=O)C4)ncc3F)C2)CC1` [Compound I-21, N2-[3-(Aminosulfonylmethylene)phenyl]-5-fluoro-N4-[3-(1-methylpiperidin-4-ylaminosulfonylmethylene)phenyl]-2,4-pyrimidinediamine], the pIC50 in assay [1] (Homo sapiens, Ramos) is 5.59. For `NS(=O)(=O)c1cccc(Nc2ncc(F)c(Nc3cc4c(cc3F)CS(=O)(=O)N4)n2)c1` [Compound V-2, N2-(3-aminosulfonyl)phenyl-5-fluoro-N4-(2,2-dioxo-5-fluoro-1,3-dihydrobenzo[c]isothiazol-6-yl)-2,4-pyrimidinediamine], the pIC50 is 4.83 in assay [1] (Homo sapiens, Ramos) and 4.62 with Primary human T-cells (Homo sapiens, T-cell, 72 h). On to `NS(=O)(=O)c1ccc(Nc2ncc(F)c(Nc3cc4c(cc3F)CS(=O)(=O)N4)n2)cc1` [Compound V-1, N2-(4-aminosulfonyl)phenyl-5-fluoro-N4-(2,2-dioxo-5-fluoro-1,3-dihydrobenzo[c]isothiazol-6-yl)-2,4-pyrimidinediamine], for which the pIC50 in assay [1] (Homo sapiens, Ramos) was 4.91. As to `CC1(C)Oc2ccc(Nc3nc(Nc4ccc5c(c4)NS(=O)(=O)CO5)ncc3F)nc2NC1=O` [Compound V-4, N4-[2,2-dimethyl-3-oxo-4H-pyrid[1,4]oxazin-7-yl]-N2-[3,3-dioxo-1H-benzo[e][1,3,4]oxathiazin-7-yl]-5-fluoro-2,4-pyrimidinediamine], the pIC50 is 6.10 in assay [1] (Homo sapiens, Ramos) and 5.76 with Primary human T-cells (Homo sapiens, T-cell, 72 h).
